Measurements published in patent US20100143506A1, “APPARATUS AND METHOD FOR TREATMENT OF MICROORGANISMS DURING SUGAR PRODUCTION AND SUGAR-BASED FE[…]” (priority 2008, published 2010).

What was measured:
[1] = system: bacteria; test: Plant trial: lactate in the fermentor while the thin juice line is treated with chlorine dioxide
Description: A thin juice line at a sugar plant that fed into a distillery for fermentation was treated with chlorine dioxide according to the present method. Previously the thin juice line had been treated using sulfuric acid to decrease the pH. The trial evaluated the bacterial efficacy of chlorine dioxide at an elevated pH in order to reduce sulfuric acid use without causing a detrimental effect to the yeast or fermentation.
In the trial, 90% pure chlorine dioxide solution was generated. Twenty parts per million (ppm) of chlorine dioxide was introduced into the thin juice line. Thin juice samples were collected before during and after the trial. The samples were examined for chlorite, chlorate and chloride residuals.
During the trial, bacterial samples were also collected and analyzed at various locations in the system.
The data indicates a low level of lactate before chlorine dioxide was introduced at the normal pH of 3.5. […] On day 18 the equipment had to be shutdown due to an unrelated issue.

[2] = system: Weisella confusa; conditions: cited from earlier work
[3] = system: fermentation; conditions: cited from earlier work

In the case of `[O][Cl+][O-]` [chlorine dioxide], the “Lactate Concentration” value ([1]; Day of Trial 4, Fifth location in the Fermentor) is reported as 0.6 g/L, the “Lactate Concentration” value ([1]; Day of Trial 4, First location in the Fermentor) is reported as 0.39 g/L and the “Lactate Concentration” value ([1]; Day of Trial 4, Fourth location in the Fermentor) is reported as 0.58 g/L. For the same molecule, the “Lactate Concentration” value ([1]; Day of Trial 4, Second location in the Fermentor) was 0.6 g/L, the “Lactate Concentration” value ([1]; Day of Trial 4, Third location in the Fermentor) was 0.6 g/L and the “Lactate Concentration” value ([1]; Day of Trial 5, Fifth location in the Fermentor) was 0.75 g/L. The “Lactate Concentration” value ([1]; Day of Trial 5, First location in the Fermentor) was 0.44 g/L, the “Lactate Concentration” value ([1]; Day of Trial 5, Fourth location in the Fermentor) was 0.69 g/L and the “Lactate Concentration” value ([1]; Day of Trial 5, Second location in the Fermentor) was 0.66 g/L. For the same molecule, the “Lactate Concentration” value ([1]; Day of Trial 5, Third location in the Fermentor) was 0.71 g/L, the “Lactate Concentration” value ([1]; Day of Trial 6, Fifth location in the Fermentor) was 0.69 g/L and the “Lactate Concentration” value ([1]; Day of Trial 6, First location in the Fermentor) was 0.39 g/L. For the same molecule, the “Lactate Concentration” value ([1]; Day of Trial 6, Fourth location in the Fermentor) was 0.71 g/L, the “Lactate Concentration” value ([1]; Day of Trial 6, Second location in the Fermentor) was 0.54 g/L and the “Lactate Concentration” value ([1]; Day of Trial 6, Third location in the Fermentor) was 0.62 g/L. For the same molecule, the “Lactate Concentration” value ([1]; Day of Trial 7, Fifth location in the Fermentor) was 0.9 g/L, the “Lactate Concentration” value ([1]; Day of Trial 7, First location in the Fermentor) was 0.51 g/L and the “Lactate Concentration” value ([1]; Day of Trial 7, Fourth location in the Fermentor) was 0.88 g/L. For the same molecule, the “Lactate Concentration” value ([1]; Day of Trial 7, Second location in the Fermentor) was 0.76 g/L, the “Lactate Concentration” value ([1]; Day of Trial 7, Third location in the Fermentor) was 0.81 g/L and the “Lactate Concentration” value ([1]; Day of Trial 8, Fifth location in the Fermentor) was 0.75 g/L. The “Lactate Concentration” value ([1]; Day of Trial 8, First location in the Fermentor) was 0.44 g/L, the “Lactate Concentration” value ([1]; Day of Trial 8, Fourth location in the Fermentor) was 0.7 g/L and the “Lactate Concentration” value ([1]; Day of Trial 8, Second location in the Fermentor) was 0.55 g/L. The “Lactate Concentration” value ([1]; Day of Trial 8, Third location in the Fermentor) was 0.64 g/L, the “Lactate Concentration” value ([1]; Day of Trial 9, Fifth location in the Fermentor) was 0.83 g/L and the “Lactate Concentration” value ([1]; Day of Trial 9, First location in the Fermentor) was 0.5 g/L. The “Lactate Concentration” value ([1]; Day of Trial 9, Fourth location in the Fermentor) was 0.78 g/L, the “Lactate Concentration” value ([1]; Day of Trial 9, Second location in the Fermentor) was 0.68 g/L and the “Lactate Concentration” value ([1]; Day of Trial 9, Third location in the Fermentor) was 0.74 g/L. For the same molecule, the “Lactate Concentration” value ([1]; Day of Trial 10, Fifth location in the Fermentor) was 0.84 g/L, the “Lactate Concentration” value ([1]; Day of Trial 10, First location in the Fermentor) was 0.55 g/L and the “Lactate Concentration” value ([1]; Day of Trial 10, Fourth location in the Fermentor) was 0.83 g/L. The “Lactate Concentration” value ([1]; Day of Trial 10, Second location in the Fermentor) was 0.77 g/L, the “Lactate Concentration” value ([1]; Day of Trial 10, Third location in the Fermentor) was 0.82 g/L and the “Lactate Concentration” value ([1]; Day of Trial 11, Fifth location in the Fermentor) was 0.8 g/L. The “Lactate Concentration” value ([1]; Day of Trial 11, First location in the Fermentor) was 0.4 g/L, the “Lactate Concentration” value ([1]; Day of Trial 11, Fourth location in the Fermentor) was 0.65 g/L and the “Lactate Concentration” value ([1]; Day of Trial 11, Second location in the Fermentor) was 0.5 g/L. The “Lactate Concentration” value ([1]; Day of Trial 11, Third location in the Fermentor) was 0.55 g/L, the “Lactate Concentration” value ([1]; Day of Trial 13, Fifth location in the Fermentor) was 0.42 g/L and the “Lactate Concentration” value ([1]; Day of Trial 13, First location in the Fermentor) was 0.22 g/L. For the same molecule, the “Lactate Concentration” value ([1]; Day of Trial 13, Fourth location in the Fermentor) was 0.39 g/L, the “Lactate Concentration” value ([1]; Day of Trial 13, Second location in the Fermentor) was 0.33 g/L and the “Lactate Concentration” value ([1]; Day of Trial 13, Third location in the Fermentor) was 0.36 g/L. The “Lactate Concentration” value ([1]; Day of Trial 14, Fifth location in the Fermentor) was 0.51 g/L, the “Lactate Concentration” value ([1]; Day of Trial 14, First location in the Fermentor) was 0.22 g/L and the “Lactate Concentration” value ([1]; Day of Trial 14, Fourth location in the Fermentor) was 0.4 g/L. The “Lactate Concentration” value ([1]; Day of Trial 14, Second location in the Fermentor) was 0.36 g/L, the “Lactate Concentration” value ([1]; Day of Trial 14, Third location in the Fermentor) was 0.37 g/L and the “Lactate Concentration” value ([1]; Day of Trial 15, Fifth location in the Fermentor) was 0.5 g/L. The “Lactate Concentration” value ([1]; Day of Trial 15, First location in the Fermentor) was 0.22 g/L, the “Lactate Concentration” value ([1]; Day of Trial 15, Fourth location in the Fermentor) was 0.4 g/L and the “Lactate Concentration” value ([1]; Day of Trial 15, Second location in the Fermentor) was 0.32 g/L. The “Lactate Concentration” value ([1]; Day of Trial 15, Third location in the Fermentor) was 0.34 g/L, the “Lactate Concentration” value ([1]; Day of Trial 16, Fifth location in the Fermentor) was 0.6 g/L and the “Lactate Concentration” value ([1]; Day of Trial 16, First location in the Fermentor) was 0.3 g/L. For the same molecule, the “Lactate Concentration” value ([1]; Day of Trial 16, Fourth location in the Fermentor) was 0.5 g/L, the “Lactate Concentration” value ([1]; Day of Trial 16, Second location in the Fermentor) was 0.4 g/L and the “Lactate Concentration” value ([1]; Day of Trial 16, Third location in the Fermentor) was 0.45 g/L. The “Lactate Concentration” value ([1]; Day of Trial 17, Fifth location in the Fermentor) was 0.67 g/L, the “Lactate Concentration” value ([1]; Day of Trial 17, First location in the Fermentor) was 0.29 g/L and the “Lactate Concentration” value ([1]; Day of Trial 17, Fourth location in the Fermentor) was 0.57 g/L. The “Lactate Concentration” value ([1]; Day of Trial 17, Second location in the Fermentor) was 0.43 g/L, the “Lactate Concentration” value ([1]; Day of Trial 17, Third location in the Fermentor) was 0.5 g/L and the “Lactate Concentration” value ([1]; Day of Trial 18, Fifth location in the Fermentor) was 0.62 g/L. For the same molecule, the “Lactate Concentration” value ([1]; Day of Trial 18, First location in the Fermentor) was 0.43 g/L, the “Lactate Concentration” value ([1]; Day of Trial 18, Fourth location in the Fermentor) was 0.6 g/L and the “Lactate Concentration” value ([1]; Day of Trial 18, Second location in the Fermentor) was 0.48 g/L. For the same molecule, the “Lactate Concentration” value ([1]; Day of Trial 18, Third location in the Fermentor) was 0.54 g/L, the “Lactate Concentration” value ([1]; Day of Trial 19, Fifth location in the Fermentor) was 1.1 g/L and the “Lactate Concentration” value ([1]; Day of Trial 19, First location in the Fermentor) was 0.4 g/L. The “Lactate Concentration” value ([1]; Day of Trial 19, Fourth location in the Fermentor) was 0.8 g/L, the “Lactate Concentration” value ([1]; Day of Trial 19, Second location in the Fermentor) was 0.6 g/L and the “Lactate Concentration” value ([1]; Day of Trial 19, Third location in the Fermentor) was 0.7 g/L. For the same molecule, the “Lactate Concentration” value ([1]; Day of Trial 20, Fifth location in the Fermentor) was 0.85 g/L, the “Lactate Concentration” value ([1]; Day of Trial 20, First location in the Fermentor) was 0.55 g/L and the “Lactate Concentration” value ([1]; Day of Trial 20, Fourth location in the Fermentor) was 0.5 g/L. For the same molecule, the “Lactate Concentration” value ([1]; Day of Trial 20, Second location in the Fermentor) was 0.7 g/L, the “Lactate Concentration” value ([1]; Day of Trial 20, Third location in the Fermentor) was 0.75 g/L and the “Lactate Concentration” value ([1]; Day of Trial 21, Fifth location in the Fermentor) was 1.36 g/L. For the same molecule, the “Lactate Concentration” value ([1]; Day of Trial 21, First location in the Fermentor) was 0.9 g/L, the “Lactate Concentration” value ([1]; Day of Trial 21, Fourth location in the Fermentor) was 1.35 g/L and the “Lactate Concentration” value ([1]; Day of Trial 21, Second location in the Fermentor) was 1.16 g/L. For the same molecule, the “Lactate Concentration” value ([1]; Day of Trial 21, Third location in the Fermentor) was 1.24 g/L, the “Lactate Concentration” value ([1]; Day of Trial 22, Fifth location in the Fermentor) was 1.66 g/L and the “Lactate Concentration” value ([1]; Day of Trial 22, First location in the Fermentor) was 1.31 g/L. For the same molecule, the “Lactate Concentration” value ([1]; Day of Trial 22, Fourth location in the Fermentor) was 2.04 g/L, the “Lactate Concentration” value ([1]; Day of Trial 22, Second location in the Fermentor) was 1.73 g/L and the “Lactate Concentration” value ([1]; Day of Trial 22, Third location in the Fermentor) was 2.01 g/L. The “Lactate Concentration” value ([1]; Day of Trial 23, Fifth location in the Fermentor) was 2.15 g/L, the “Lactate Concentration” value ([1]; Day of Trial 23, First location in the Fermentor) was 1.39 g/L and the “Lactate Concentration” value ([1]; Day of Trial 23, Fourth location in the Fermentor) was 2.19 g/L. For the same molecule, the “Lactate Concentration” value ([1]; Day of Trial 23, Second location in the Fermentor) was 1.75 g/L, the “Lactate Concentration” value ([1]; Day of Trial 23, Third location in the Fermentor) was 2.01 g/L and the “Lactate Concentration” value ([1]; Day of Trial 24, Fifth location in the Fermentor) was 2.13 g/L. For the same molecule, the “Lactate Concentration” value ([1]; Day of Trial 24, First location in the Fermentor) was 1.12 g/L, the “Lactate Concentration” value ([1]; Day of Trial 24, Fourth location in the Fermentor) was 2 g/L and the “Lactate Concentration” value ([1]; Day of Trial 24, Second location in the Fermentor) was 1.41 g/L. The “Lactate Concentration” value ([1]; Day of Trial 24, Third location in the Fermentor) was 1.73 g/L and the “lactate trend once treatment was started” value ([1]; chlorine dioxide at 20 ppm with a pH elevation to 4) was “trended downward”.
In the case of Virginiamycin, the “concentration required to inhibit growth of Weisella confusa” value [2] is given as “over 25 mg/L” and the “concentration that will suppress fermentation” value [3] is given as “over 6 mg/L”.
